From BindingDB's records for doi:10.1016/s0960-894x(02)00051-3 (Eli Lilly, 2002)
pEC50: −log10 of the molar value.

Biological target: Multidrug resistance-associated protein 1 (ABCC1) (Homo sapiens) (UniProt P33527)
Experiment: In vitro for its inhibitory activity against MRP1-transfected HeLa-T5 cell line in the presence of doxorubicin

Chain of Multidrug resistance-associated protein 1 (ABCC1) (Homo sapiens) (P33527 whole entry, looked up): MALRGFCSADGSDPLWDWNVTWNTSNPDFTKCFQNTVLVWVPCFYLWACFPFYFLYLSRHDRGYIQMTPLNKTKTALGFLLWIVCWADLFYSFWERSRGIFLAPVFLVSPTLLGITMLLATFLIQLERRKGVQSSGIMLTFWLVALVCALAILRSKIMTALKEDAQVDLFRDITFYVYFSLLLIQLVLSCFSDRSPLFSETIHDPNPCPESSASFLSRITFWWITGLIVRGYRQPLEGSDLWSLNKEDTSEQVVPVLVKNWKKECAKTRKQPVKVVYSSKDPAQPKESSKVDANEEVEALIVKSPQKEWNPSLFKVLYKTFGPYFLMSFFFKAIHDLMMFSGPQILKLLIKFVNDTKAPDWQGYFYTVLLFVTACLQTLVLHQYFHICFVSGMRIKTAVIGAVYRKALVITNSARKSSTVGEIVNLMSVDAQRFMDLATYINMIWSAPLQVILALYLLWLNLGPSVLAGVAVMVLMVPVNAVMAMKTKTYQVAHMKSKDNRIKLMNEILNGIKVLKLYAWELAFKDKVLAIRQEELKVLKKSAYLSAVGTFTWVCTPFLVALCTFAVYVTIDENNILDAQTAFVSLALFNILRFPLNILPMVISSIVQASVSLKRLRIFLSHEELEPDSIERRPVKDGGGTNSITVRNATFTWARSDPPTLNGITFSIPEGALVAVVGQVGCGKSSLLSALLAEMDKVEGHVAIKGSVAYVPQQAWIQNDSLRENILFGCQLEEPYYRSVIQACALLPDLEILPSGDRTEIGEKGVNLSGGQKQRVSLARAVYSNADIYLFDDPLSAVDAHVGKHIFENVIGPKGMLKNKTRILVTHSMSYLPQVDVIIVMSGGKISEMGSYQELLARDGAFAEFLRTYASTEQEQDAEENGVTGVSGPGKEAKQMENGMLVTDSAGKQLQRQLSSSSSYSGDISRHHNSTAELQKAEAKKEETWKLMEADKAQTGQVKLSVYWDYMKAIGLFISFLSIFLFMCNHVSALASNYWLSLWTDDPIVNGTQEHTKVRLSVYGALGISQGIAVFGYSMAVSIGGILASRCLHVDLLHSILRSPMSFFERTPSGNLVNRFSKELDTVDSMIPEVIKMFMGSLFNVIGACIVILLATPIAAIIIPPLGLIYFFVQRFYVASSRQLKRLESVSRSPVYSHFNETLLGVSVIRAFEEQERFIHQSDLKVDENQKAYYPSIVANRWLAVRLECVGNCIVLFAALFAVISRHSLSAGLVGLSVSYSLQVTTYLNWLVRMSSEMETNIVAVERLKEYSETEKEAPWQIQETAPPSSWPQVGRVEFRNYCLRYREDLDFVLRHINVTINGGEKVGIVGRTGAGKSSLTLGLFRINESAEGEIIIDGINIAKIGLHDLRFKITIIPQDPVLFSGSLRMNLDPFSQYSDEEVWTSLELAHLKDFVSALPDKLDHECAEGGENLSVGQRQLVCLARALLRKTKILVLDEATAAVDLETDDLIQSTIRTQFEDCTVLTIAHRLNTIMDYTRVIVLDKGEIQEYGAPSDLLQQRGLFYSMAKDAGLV

| SMILES | pEC50 |
| --- | --- |
| COc1cccc(NC(=O)Cc2cccc(-n3c(=O)c4c(C)onc4c4c(Cl)cccc43)c2)c1 [2-[3-(9-Chloro-3-methyl-4-oxo-4H-isoxazolo[4,3-c]quinolin-5-yl)-phenyl]-N-(3-methoxy-phenyl)-acetamide] | 5.74 |
| Cc1onc2c1c(=O)n(-c1cccc(CC(=O)Nc3ccc(S(N)(=O)=O)cc3)c1)c1cccc(Cl)c21 [2-[3-(9-Chloro-3-methyl-4-oxo-4H-isoxazolo[4,3-c]quinolin-5-yl)-phenyl]-N-(4-sulfamoyl-phenyl)-acetamide] | < 5.00 |
| COc1cc(NC(=O)Cc2cccc(-n3c(=O)c4c(C)onc4c4c(Cl)cccc43)c2)cc(OC)c1 [2-[3-(9-Chloro-3-methyl-4-oxo-4H-isoxazolo[4,3-c]quinolin-5-yl)-phenyl]-N-(3,5-dimethoxy-phenyl)-acetamide] | 5.68 |
| Cc1onc2c1c(=O)n(-c1cccc(CC(=O)Nc3ccc(F)cc3)c1)c1cccc(Cl)c21 [2-[3-(9-Chloro-3-methyl-4-oxo-4H-isoxazolo[4,3-c]quinolin-5-yl)-phenyl]-N-(4-fluoro-phenyl)-acetamide] | 5.49 |
| COc1ccc(NC(=O)Cc2cccc(-n3c(=O)c4c(C)onc4c4c(Cl)cccc43)c2)cc1 [2-[3-(9-Chloro-3-methyl-4-oxo-4H-isoxazolo[4,3-c]quinolin-5-yl)-phenyl]-N-(4-methoxy-phenyl)-acetamide] | < 5.00 |
| COc1ccc(NC(=O)Cc2cccc(-n3c(=O)c4c(C)onc4c4c(Cl)cccc43)c2)cc1OC [2-[3-(9-Chloro-3-methyl-4-oxo-4H-isoxazolo[4,3-c]quinolin-5-yl)-phenyl]-N-(3,4-dimethoxy-phenyl)-acetamide] | 5.39 |

The next lines start with the values.

| pEC50 | SMILES |
| --- | --- |
| 5.00 | Cc1cc(C(=O)N[C@@H]2c3cc(-n4c(=O)c5c(C)onc5c5c(Cl)cccc54)ccc3C[C@H]2O)no1 [5-Methyl-isoxazole-3-carboxylic acid [(1R,2R)-6-(9-chloro-3-methyl-4-oxo-4H-isoxazolo[4,3-c]quinolin-5-yl)-2-hydroxy-indan-1-yl]-amide] |
| 5.40 | Cc1onc2c1c(=O)n(-c1cccc(CC(=O)Nc3ccc4c(c3)OCO4)c1)c1cccc(Cl)c21 [N-Benzo[1,3]dioxol-5-yl-2-[3-(9-chloro-3-methyl-4-oxo-4H-isoxazolo[4,3-c]quinolin-5-yl)-phenyl]-acetamide] |
| < 5.00 | Cc1onc2c1c(=O)n(-c1cccc(CC(=O)Nc3ccc(C(C)(C)C)cc3)c1)c1cccc(Cl)c21 [N-(4-tert-Butyl-phenyl)-2-[3-(9-chloro-3-methyl-4-oxo-4H-isoxazolo[4,3-c]quinolin-5-yl)-phenyl]-acetamide] |
| 5.10 | Cc1cc(C(=O)NCc2cccc(-n3c(=O)c4c(C)onc4c4c(Cl)cccc43)c2)no1 [5-Methyl-isoxazole-3-carboxylic acid 3-(9-chloro-3-methyl-4-oxo-4H-isoxazolo[4,3-c]quinolin-5-yl)-benzylamide] |
| 6.19 | COc1cc(N(C)C(=O)Cc2cccc(-n3c(=O)c4c(C)onc4c4c(Cl)cccc43)c2)cc(OC)c1OC [2-[3-(9-Chloro-3-methyl-4-oxo-4H-isoxazolo[4,3-c]quinolin-5-yl)-phenyl]-N-methyl-N-(3,4,5-trimethoxy-phenyl)-acetamide] |
| < 5.00 | COC(=O)c1ccc(NC(=O)Cc2cccc(-n3c(=O)c4c(C)onc4c4c(Cl)cccc43)c2)cc1 [4-{2-[3-(9-Chloro-3-methyl-4-oxo-4H-isoxazolo[4,3-c]quinolin-5-yl)-phenyl]-acetylamino}-benzoic acid methyl ester] |
| 5.75 | COc1cc(CNCc2cccc(-n3c(=O)c4c(C)onc4c4c(Cl)cccc43)c2)cc(OC)c1OC [9-Chloro-3-methyl-5-{3-[(3,4,5-trimethoxy-benzylamino)-methyl]-phenyl}-5H-isoxazolo[4,3-c]quinolin-4-one] |
| 5.83 | COc1cc(OCCc2cccc(-n3c(=O)c4c(C)onc4c4c(Cl)cccc43)c2)cc(OC)c1OC [9-Chloro-3-methyl-5-{3-[2-(3,4,5-trimethoxy-phenoxy)-ethyl]-phenyl}-5H-isoxazolo[4,3-c]quinolin-4-one] |
